Where “and” joins values, the source holds several entries; their conditions need not be identical. Equal entries are not always repeated.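 These data come from cells grown in 96-well plates and exposed to compound for 48 hours at five concentrations. Here, GI50 denotes the concentration required for 50% inhibition of growth. TGI: concentration producing complete growth inhibition.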
What was measured:
Experiment in all cases: inhibition of tumour cell growth, NCI panel, 48 h
[1] = tested on: HT29 colon
[2] = tested on: RXF 393 renal
[3] = tested on: SW-620 colon
[4] = tested on: CCRF-CEM leukemia
[5] = tested on: COLO 205 colon
[6] = tested on: NCI-H226 lung
[7] = tested on: K-562 leukemia
[8] = tested on: OVCAR-4 ovarian
[9] = tested on: SK-OV-3 ovarian
[10] = tested on: RPMI-8226 leukemia

Row | SMILES | GI50 [1] | TGI [1] | GI50 [2] | TGI [2] | GI50 [3] | TGI [3] | GI50 [4] | TGI [4] | GI50 [5] | TGI [5] | GI50 [6] | TGI [6] | GI50 [7] | TGI [7] | GI50 [8] | TGI [8] | GI50 [9] | TGI [9] | GI50 [10] | TGI [10]
1 | Oc1ccc2ccccc2c1N=Nc1ccccn1 | 523 nM | > 100000 nM | 3440 nM | > 100000 nM | 652 nM | > 100000 nM | 312 nM | 22800 nM | 431 nM | 21400 nM | 1940 nM | > 87900 nM | 600 nM | > 100000 nM | 408 nM | 3870 nM | 1140 nM | > 100000 nM | 1980 nM | > 100000 nM
2 | Clc1ccc2c(NCCNc3ccnc4cc(Cl)ccc34)ccnc2c1 | – | 29500 nM | – | 36100 nM | – | 31300 nM | – | 46200 nM | – | 30100 nM | – | 62500 nM | – | 28200 nM | – | 35500 nM | – | 31500 nM | – | 42000 nM
3 | CCOC(=O)c1c(C)[nH]c(/C=C2\N=C(c3ccc[nH]3)C=C2OC)c1C | < 10 nM | 1190 nM | – | – | < 10 nM | 1330 nM | – | – | – | – | – | – | 50.4 nM | 1530 nM | 135 nM | 2810 nM | 413 nM | 3710 nM | – | –
4 | COc1cc2cc(C(=O)N3CC(CCl)c4c3cc(N(C)C)c3ccccc43)[nH]c2c(OC)c1OC (stereo unspecified) | – | – | – | 33.4 nM | – | > 100000 nM | – | – | – | – | – | – | – | 47.7 nM | – | 114 nM | – | 39.5 nM | – | 501 nM
5 | COc1ccc(Cl)cc1NC(=O)c1c(NC(=O)C(F)(F)C(F)(F)F)sc2c1CCCCC2 | 2480 nM | > 100000 nM | 1730 nM | 5280 nM | 1930 nM | > 100000 nM | 769 nM | > 100000 nM | 1300 nM | 2800 nM | 1910 nM | 6050 nM | 663 nM | > 100000 nM | 1570 nM | 5640 nM | 2180 nM | 6890 nM | 523 nM | 3210 nM
6 | COc1cccc2c1C(=O)c1c(O)c3c(c(O)c1C2=O)C[C@@](O)(/C(C)=N/NC(=O)c1ccccc1)C[C@@H]3OC1CC(N)C(O)C(C)O1 (stereo partly specified) | – | 6040 nM | – | 1280 nM | – | 4890 nM | – | 3190 nM | – | 3200 nM | – | 786 nM | – | 4250 nM | – | 7740 nM | – | 4560 nM | – | 3850 nM
7 | COC(=O)c1cc2c3c(cc(O)c2[nH]1)N(C(=O)C1Cc2cc(OC)c(OC)c(OC)c2N1)CC3CCl (stereo unspecified) | < 10 nM | < 10 nM | – | – | < 10 nM | 132 nM | < 10 nM | > 100000 nM | – | – | – | – | – | – | < 10 nM | 845 nM | < 10 nM | < 10 nM | < 10 nM | < 10 nM
8 | NC(Cc1c[nH]c2ccccc12)C(=O)O (stereo unspecified) | – | > 300000 nM | – | > 300000 nM | – | > 300000 nM | – | > 300000 nM | – | > 300000 nM | – | > 300000 nM | – | > 189000 nM | – | > 300000 nM | – | > 300000 nM | – | > 300000 nM
9 | Nc1nc(N)c2nc(-c3ccco3)cnc2n1 | – | > 100000 nM | – | > 100000 nM | – | – | – | > 100000 nM | – | > 100000 nM | – | > 100000 nM | – | > 100000 nM | – | – | – | > 100000 nM | – | > 100000 nM
10 | O=C1C=C(N2CC2)C(=O)C=C1N1CC1 | 18.5 nM | 1400 nM | 2.46 nM | – | 14.7 nM | 848 nM | 5.68 nM | 456 nM | 34 nM | 126 nM and 267 nM | 12.9 nM | 261 nM and 1400 nM | 246 nM | 2940 nM | 185 nM | 983 nM and 613 nM | – | 2190 nM | 45.6 nM | 503 nM and 1870 nM
11 | CC[C@@]1(O)C(=O)OCc2c1cc1n(c2=O)Cc2c-1nc1ccccc1c2/C=N\NC(=O)C(N)Cc1cnc[nH]1 (stereo partly specified) | – | > 57300 nM | – | 9590 nM | – | > 100000 nM | – | 15000 nM | – | > 100000 nM | – | 16500 nM | – | > 100000 nM | – | > 100000 nM | – | > 100000 nM | – | 44000 nM
12 | COc1ccc(CCCC(=O)O)c(C)c1 | – | > 100000 nM | – | > 100000 nM | – | > 100000 nM | – | > 100000 nM | – | – | – | 91100 nM | – | > 100000 nM | – | > 100000 nM | – | – | – | –

— PubChem BioAssay (NCI)
